US20050201938A1, “Method for selectively inhibiting ghrelin action” (priority 2000, published 2005)

Tests used:
[1] = In-vivo analysis of body composition by dual-energy X-ray absorptiometry (DXA); design: species or system mice
Procedure: Body composition was measured on day 14 of the treatment period by DXA using a Norland p-DEXA® (Norland, USA). The system provides a non-invasive method for quantification of whole body composition and is based on the differential attenuation of high and low energy x-rays by the tissues in the scan area. Soft tissues attenuate the energy beam less than bone; of the soft tissue mass, fat tissue attenuates the beam less than lean tissue. Fat mass consists primarily of adipose tissue, but lean mass includes organs, tendons, cartilage, blood and body water in addition to skeletal muscle. In the present study, fat mass, lean mass and bone mineral content (bone mass) were measured and reported. Mice were anesthetized with inhalation of isoflorane and placed on the instrument platform in ventral position. Measurements were performed at a speed of 10 mm/min and a resolution of 0.5×0.5 mm. Quality controls using phantom ID2232 and Calibration Standard 82315 (Norland) were performed before starting measurements.
(§1) Mice were treated with GHRP-2 for 18 days. […] This was partially a consequence of decreased (p=0.02) lipid utilization measured by indirect calorimetry. Hypothalamic mRNA levels (measured by RT-PCR) of neuropeptide Y (NPY), agouti-related-protein (AGRP), pro-opio-melanocortin (POMC) and […] (MCH) were not changed. Since GHRP-6 increases c-fos expression in NPY-neurons (Vernon, R. G.; J Endocrinol 150, 129-40 (1996)) and because these neurons also release AGRP, a natural melanocyte stimulating hormone antagonist, GHRP-2 treatment was repeated in NPY-knockout mice (NPY-/−). […] However, an increase in AGRP mRNA levels (p=0.008, n=24 in GHRP-2 treated (NPY-/−)) was observed. Plasma levels of IGF-I, insulin, glucose and corticosterone were not changed. […] 200 μg of rat ghrelin was injected subcutaneously into wild-type mice, GHRP-2 or vehicle (phosphate buffered saline). After 5 days of treatment, body weight increased (p=0.00) 12% in both ghrelin- and GHRP-2-treated mice but not in controls. This weight gain was a consequence of decreased energy expenditure and decreased lipid utilization.

[2] = In vivo administration to wild-type mice: food intake and body weight; conditions: for body weight increase: wild-type mice, subcutaneous injection, after 5 days of treatment, not in controls
Procedure: (§2) Wild-type mice (129SV strain) and NPY-knockout mice were obtained from Taconic Farms®. Eight-week old dwarf rats were purchased at Harlan UK. Animals were housed individually in a temperature controlled environment (25° C.) with a 12-hour light and 12-hour dark (18.00−06.00) photoperiod. All mice had ad libitum access to pelleted mouse food (5008 PMI® Nutrition International) and tap water. Mice were between 9 and 13 weeks of age and were injected daily between 17.00 and 18.00 with 0.1 ml of phosphate buffered saline (PBS) containing 0 or 8 mg/kg/d ghrelin over 13 days. Food intake and body weights were measured daily at 08.00 h. All animal experiments were conducted in accordance with the principles and procedures outlined in the National Institute of Health (NIH) Guide for the Care and Use of Laboratory Animals.
as §1

[3] = Indirect calorimetry (energy expenditure, fuel utilization); assay type: in vivo, mice
Procedure: Twenty-four hour energy expenditure (EE) and respiratory quotient (RQ) were measured by indirect calorimetry using an open circuit calorimetry system (Oxymax, Columbus Instruments International Corporation; Columbus, Ohio). The instrument was calibrated before each experiment using standard gas mixtures containing known concentrations of CO2, N2 and O2. After the first daily injection, animals were placed in calorimeter chambers containing food and water in a room maintained under identical conditions as those described above throughout the treatment period. Gas sampled from each of 10 chambers was first dried by a condenser. The volume of oxygen consumed (VO2) and carbon dioxide produced (VCO2) in an hour was measured using a paramagnetic oxygen sensor and a spectrophotometric CO2 sensor. Such measurements were obtained hourly for 24 hours. RQ is the ratio of VCO2 to VO2. EE was calculated as the product of calorific value of oxygen (CV) and VO2 per kilogram (kg) of body weight; where CV=3.815+1.232*RQ (Elia, M. & Livesey, G, World Rev Nutr Diet 70, 68-131 (1992)). Total calories expended were calculated to determine daily fuel utilization. To calculate proportion of protein, fat and carbohydrate that is utilized during that 24-hour period, we used Flatt's proposal and assumed that protein utilization was equivalent to protein intake for adult stable animals (Flatt, J. P., J. Nutr Biochem 2, 193-202 (1991)). Using formulae and constants derived by Elia and Livesey (Elia, M. & Livesey, G., World Rev Nutr Diet, 70, 68-131 (1992)), we calculated the percent of daily fuel utilization derived from carbohydrate and fat. Daily caloric intake was calculated as (mass of daily food intake in g)*(physiological fuel value of the diet in kcal/g). Locomotor activity was measured by counting the number of times an animal breaks a new light beam during each of 24 hours in the calorimeter.
as §1

[4] = test system: NPY-knockout mice (NPY-/-); experiment: GHRP-2 treatment repeated in NPY-knockout mice; assay type: in vivo
Procedure: as §2
Mice were treated with GHRP-2 for 18 days. […] This was partially a consequence of decreased (p=0.02) lipid utilization measured by indirect calorimetry. Hypothalamic mRNA levels (measured by RT-PCR) of neuropeptide Y (NPY), agouti-related-protein (AGRP), pro-opio-melanocortin (POMC) and […] (MCH) were not changed. […]

[5] = Plasma levels of IGF-I, insulin, glucose and corticosterone after GHRP-2 treatment; assay type: in vivo; conditions: GHRP-2 treated mice
Procedure: as §1

[6] = test system: hypothalamic mRNA of NPY, AGRP, POMC, MCH; experiment: Hypothalamic mRNA levels measured by RT-PCR, wild-type mice; assay type: in vivo; conditions: GHRP-2 treatment
Procedure: as §1

[7] = wild-type mice, 5 days of treatment
[8] = mice treated with GHRP-2 for 18 days, n=42, p=0.001

Substance | effect of administration in an animal model (fat deposition) ([1]; animal model, inventors' work, Nature 407: 908-913 (2000)) | body weight increase [2] | energy expenditure [3, 7] | lipid utilization [3, 7] | fat mass ([1]; mice, 18 days treatment, DXA, p=0.002) | bone mass ([1]; mice, 18 days treatment, DXA, p=0.017) | lean mass ([1]; mice, 18 days treatment, DXA, p=0.63) | energy balance [4] | AGRP mRNA levels ([4]; p=0.008, n=24) | body weight [2, 8] | food intake [2, 8] | plasma level of IGF-I [5] | plasma level of corticosterone [5] | plasma level of glucose [5] | plasma level of insulin [5] | hypothalamic mRNA level of agouti-related-protein (AGRP) [6] | hypothalamic mRNA level of melanocyte-concentrating hormone (MCH) [6] | hypothalamic mRNA level of neuropeptide Y (NPY) [6] | hypothalamic mRNA level of pro-opio-melanocortin (POMC) [6] | lipid utilization ([3]; mice, 18 days treatment, indirect calorimetry, p=0.02)
ghrelin | predominantly lead to fat deposition | 12% | decreased | decreased |  |  |  |  |  |  |  |  |  |  |  |  |  |  |  | 
GHRP-2 |  | 12% | decreased | decreased | significant increase | significant increase | no change | positive energy balance | increase | dose-dependent increase | dose-dependent increase | not changed | not changed | not changed | not changed | not changed | not changed | not changed | not changed | decreased
